Experimental data from ChEMBL document CHEMBL1201862, “PubChem BioAssay data set” (2004).
Values joined by “and” are separate entries in the source; they are usually repeats but may differ in a detail not shown here. Equal entries are not always repeated. Active and inactive are the calls of the source.

Assays:
[1] = biological target: T1, DNA dC->dU-editing enzyme APOBEC-3G (Homo sapiens, UniProt Q9HC16); assay type: functional
[2] = biological target: T1, DNA dC->dU-editing enzyme APOBEC-3G; assay: APOBEC3G deaminase inhibitors, SAR follow-up, biochemical, fluorescence, single-stranded DNA substrate (AID 602136); assay type: functional; settings: read-out: IC50_Mean
[3] = biological target: T2, DNA dC->dU-editing enzyme APOBEC-3A (Homo sapiens, UniProt P31941); assay: SAR analysis of small molecule inhibitors of APOBEC3A DNA Deaminase via a fluorescence-based single-stranded DNA deaminase assay - Set 2.; assay type: functional; settings: read-out: IC50_Mean
[4] = biological target: T2, DNA dC->dU-editing enzyme APOBEC-3A; assay: Dose Response confirmation of small molecule APOBEC3A DNA Deaminase Inhibitors via a fluorescence-based single-stranded DNA deaminase assay. [Related pubchem assays (depositor defined):AID493011, AID493024]; assay type: functional
[5] = biological target: T2, DNA dC->dU-editing enzyme APOBEC-3A; assay: SAR analysis of small molecule inhibitors of APOBEC3A DNA Deaminase via a fluorescence-based single-stranded DNA deaminase assay.; assay type: functional; settings: read-out: IC50_Mean
[6] = biological target: T1, DNA dC->dU-editing enzyme APOBEC-3G; assay: SAR analysis of small molecule inhibitors of APOBEC3G DNA Deaminase via a fluorescence-based single-stranded DNA deaminase assay - Set 2.; assay type: functional; settings: read-out: IC50_Mean
[7] = Luminescence Cell-Based Dose Response HTS to Identify Activators of Luciferase Translation or Activity in H4 […] Cells. [Related pubchem assays: 1829 (Project Summary), 1814 (Primary HTS)]; assay type: functional
[8] = biological target: T3, High affinity choline transporter 1 (Homo sapiens, UniProt Q9GZV3); assay: CHT inhibitors, dose response, cell-based, 10-point CRC, membrane potential dye (AID 588401); assay type: functional;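 also: membrane potential dye fluorescence of choline-evoked depolarization via CHT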
T3 sequence (Q9GZV3 whole entry): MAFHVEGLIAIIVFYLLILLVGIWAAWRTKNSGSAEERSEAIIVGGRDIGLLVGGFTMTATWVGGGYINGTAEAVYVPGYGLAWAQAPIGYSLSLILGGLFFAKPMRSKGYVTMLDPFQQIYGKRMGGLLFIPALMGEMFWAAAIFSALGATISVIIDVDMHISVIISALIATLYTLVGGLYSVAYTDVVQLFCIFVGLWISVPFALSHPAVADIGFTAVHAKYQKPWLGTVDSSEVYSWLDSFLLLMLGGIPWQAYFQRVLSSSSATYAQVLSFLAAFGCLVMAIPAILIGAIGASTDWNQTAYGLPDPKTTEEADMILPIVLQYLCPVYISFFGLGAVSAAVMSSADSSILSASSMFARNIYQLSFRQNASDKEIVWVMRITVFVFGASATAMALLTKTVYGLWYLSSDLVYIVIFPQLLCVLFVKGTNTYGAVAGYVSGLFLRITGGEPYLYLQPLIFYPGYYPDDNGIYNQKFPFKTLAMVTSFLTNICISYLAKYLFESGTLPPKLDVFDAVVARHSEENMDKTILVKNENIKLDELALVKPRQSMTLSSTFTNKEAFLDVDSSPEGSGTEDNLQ

[9] = biological target: T3, High affinity choline transporter 1; assay: CHT inhibitors, dose response, cell-based, 5-point CRC, membrane potential dye (AID 504840); assay type: functional
[10] = Luminescence Cell-Based Dose Confirmation HTS to Identify Activators of 5'UTR Stem-Loop Driven Alpha-Synuclein mRNA Translation in H4 Neuroglioblastoma Cells. [Related pubchem assays: 1829 (Project Summary), 1814 (Primary HTS)]; assay type: functional
H4 = assay: Luminescence Cell-Based Dose Response HTS to Identify Activators of 5'UTR Stem-Loop Driven Prion Protein mRNA Translation in H4 Neuroglioblastoma Cells. [Related pubchem assays: 1829 (Project Summary), 1814 (Primary HTS)]; assay type: functional; settings: Homo sapiens
Melanocortin receptor 4 = Melanocortin receptor 4 (Homo sapiens, UniProt P32245); assay type: functional, cell-based;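 also: Cell-based assay with luminescence read-out, confirmatory dose-response testing for agonist activity of biased ligands at MC4R; human U2OS cells with tagged receptor and beta-arrestin; potency of agonists that increase receptor coupling to beta-arrestin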
[11] = biological target: T4, Heat shock factor protein 1 (Mus musculus, UniProt P38532); assay: inhibition of MG132-induced HSE-luciferase signal, confirmation, cell-based, NIH3T3, luminescence, dose retest (AID 2382); assay type: functional;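 also: NIH3T3 fibroblasts with HSF1-driven luciferase reporter stressed by proteasome inhibitor MG132; luminescence from HSF1-driven luciferase expression after 8 hours of MG132 stress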
T4 sequence (P38532 whole entry): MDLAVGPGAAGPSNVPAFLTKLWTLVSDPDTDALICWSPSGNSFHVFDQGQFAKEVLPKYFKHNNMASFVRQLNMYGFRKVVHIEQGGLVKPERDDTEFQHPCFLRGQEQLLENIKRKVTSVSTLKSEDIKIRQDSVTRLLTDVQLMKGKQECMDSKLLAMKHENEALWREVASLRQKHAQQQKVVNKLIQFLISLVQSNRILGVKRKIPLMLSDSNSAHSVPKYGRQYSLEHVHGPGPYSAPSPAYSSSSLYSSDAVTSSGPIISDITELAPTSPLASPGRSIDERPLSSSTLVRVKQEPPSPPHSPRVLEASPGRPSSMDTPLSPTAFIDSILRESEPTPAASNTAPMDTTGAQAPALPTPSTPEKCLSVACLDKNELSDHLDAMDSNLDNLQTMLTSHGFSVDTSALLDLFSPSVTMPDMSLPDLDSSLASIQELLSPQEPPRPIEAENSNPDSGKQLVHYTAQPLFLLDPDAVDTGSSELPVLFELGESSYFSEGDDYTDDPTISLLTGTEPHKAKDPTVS

[12] = biological target: T2, DNA dC->dU-editing enzyme APOBEC-3A; assay: APOBEC3A DNA deaminase inhibitors, dose response, biochemical (AID 504722); assay type: functional
[13] = biological target: T1, DNA dC->dU-editing enzyme APOBEC-3G; assay: Dose Response confirmation of small molecule APOBEC3G DNA Deaminase Inhibitors via a fluorescence-based single-stranded DNA deaminase assay. [Related pubchem assays (depositor defined):AID493012, AID493028]; assay type: functional
[14] = biological target: T5, Rac GTPase-activating protein 1 (Homo sapiens, UniProt Q9H0H5); assay: MgcRacGAP GTPase-activating activity inhibitors, confirmation, biochemical, ADP Hunter fluorescence, primary and confirmatory (AID 624330); assay type: functional
T5 sequence (Q9H0H5 whole entry): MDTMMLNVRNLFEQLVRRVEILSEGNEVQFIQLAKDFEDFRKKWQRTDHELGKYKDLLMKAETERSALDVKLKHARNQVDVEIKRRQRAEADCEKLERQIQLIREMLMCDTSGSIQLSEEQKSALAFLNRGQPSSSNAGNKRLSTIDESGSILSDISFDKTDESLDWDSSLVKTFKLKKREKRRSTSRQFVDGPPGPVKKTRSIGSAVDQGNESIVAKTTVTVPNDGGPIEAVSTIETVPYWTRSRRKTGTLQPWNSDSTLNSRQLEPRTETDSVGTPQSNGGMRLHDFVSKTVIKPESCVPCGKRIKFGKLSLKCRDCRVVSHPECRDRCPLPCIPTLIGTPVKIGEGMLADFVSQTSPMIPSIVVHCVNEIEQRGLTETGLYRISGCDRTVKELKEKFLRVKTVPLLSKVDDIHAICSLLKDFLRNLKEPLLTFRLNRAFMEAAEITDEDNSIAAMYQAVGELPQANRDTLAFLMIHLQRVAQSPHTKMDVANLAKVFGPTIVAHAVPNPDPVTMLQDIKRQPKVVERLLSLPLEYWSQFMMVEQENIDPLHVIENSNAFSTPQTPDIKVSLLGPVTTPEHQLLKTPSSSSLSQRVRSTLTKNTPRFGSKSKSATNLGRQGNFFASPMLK

[15] = biological target: T6, Carboxy-terminal domain RNA polymerase II polypeptide A small phosphatase 1 (Homo sapiens, UniProt Q9GZU7); assay: inhibitors of CTDSP1, concentration-response testing, biochemical assay, absorbance-based, actives from ultra-high-throughput screening (AID 540297); assay type: functional
T6 sequence (Q9GZU7 whole entry): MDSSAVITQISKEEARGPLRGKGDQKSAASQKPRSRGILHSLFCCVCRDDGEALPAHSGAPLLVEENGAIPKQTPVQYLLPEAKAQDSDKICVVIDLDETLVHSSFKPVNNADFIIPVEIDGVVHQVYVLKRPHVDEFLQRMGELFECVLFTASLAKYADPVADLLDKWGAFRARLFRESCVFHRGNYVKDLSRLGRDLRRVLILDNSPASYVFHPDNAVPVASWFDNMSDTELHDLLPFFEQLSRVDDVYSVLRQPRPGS

[16] = biological target: DNA (cytosine-5)-methyltransferase 1 (Homo sapiens, UniProt P26358); assay: DNMT1 methyltransferase inhibitors, confirmation, biochemical, fluorescent molecular beacon (AID 602386); assay type: functional
[17] = biological target: T7, Apoptotic protease-activating factor 1 (Homo sapiens, UniProt O14727); assay: SAR analysis of small molecule Activators of Apaf-1 in a Fluorescent assay.; assay type: functional; settings: read-out: EC50_Mean;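 also: caspase-3 cleavage of fluorogenic Rh110 DEVD substrate downstream of apoptosome activation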
T7 sequence (O14727 whole entry): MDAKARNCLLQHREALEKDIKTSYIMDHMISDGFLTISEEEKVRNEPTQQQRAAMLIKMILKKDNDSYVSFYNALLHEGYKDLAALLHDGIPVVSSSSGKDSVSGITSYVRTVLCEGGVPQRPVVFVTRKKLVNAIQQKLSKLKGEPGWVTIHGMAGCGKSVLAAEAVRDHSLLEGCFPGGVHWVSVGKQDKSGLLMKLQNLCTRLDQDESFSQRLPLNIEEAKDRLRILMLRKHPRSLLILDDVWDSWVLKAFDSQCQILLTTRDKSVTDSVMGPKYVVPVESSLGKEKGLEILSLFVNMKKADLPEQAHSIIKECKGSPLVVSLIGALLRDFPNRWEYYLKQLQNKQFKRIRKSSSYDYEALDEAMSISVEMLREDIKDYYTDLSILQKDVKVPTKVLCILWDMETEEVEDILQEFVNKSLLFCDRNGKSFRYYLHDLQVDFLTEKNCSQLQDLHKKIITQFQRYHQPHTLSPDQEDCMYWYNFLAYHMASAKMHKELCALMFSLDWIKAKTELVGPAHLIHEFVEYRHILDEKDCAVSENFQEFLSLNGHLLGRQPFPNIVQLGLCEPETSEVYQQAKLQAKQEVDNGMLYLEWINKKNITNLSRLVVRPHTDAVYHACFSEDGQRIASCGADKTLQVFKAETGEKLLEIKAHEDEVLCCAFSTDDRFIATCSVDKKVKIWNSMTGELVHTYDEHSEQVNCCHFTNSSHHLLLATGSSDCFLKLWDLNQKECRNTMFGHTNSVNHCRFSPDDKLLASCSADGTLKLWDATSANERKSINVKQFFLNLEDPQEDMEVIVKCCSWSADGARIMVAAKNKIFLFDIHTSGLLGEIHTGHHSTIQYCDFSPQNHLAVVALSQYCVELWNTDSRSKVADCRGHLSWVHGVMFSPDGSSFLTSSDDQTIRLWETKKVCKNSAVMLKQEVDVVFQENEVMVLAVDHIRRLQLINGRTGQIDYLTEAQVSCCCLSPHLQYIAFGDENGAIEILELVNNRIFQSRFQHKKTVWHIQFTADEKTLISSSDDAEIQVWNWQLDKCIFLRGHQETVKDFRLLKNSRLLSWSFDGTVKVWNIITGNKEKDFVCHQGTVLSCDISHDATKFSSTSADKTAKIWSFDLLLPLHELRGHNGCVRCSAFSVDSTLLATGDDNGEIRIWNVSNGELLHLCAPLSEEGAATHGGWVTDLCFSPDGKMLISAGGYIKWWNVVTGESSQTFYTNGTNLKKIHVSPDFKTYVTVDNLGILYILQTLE

T1 sequence (Q9HC16 whole entry): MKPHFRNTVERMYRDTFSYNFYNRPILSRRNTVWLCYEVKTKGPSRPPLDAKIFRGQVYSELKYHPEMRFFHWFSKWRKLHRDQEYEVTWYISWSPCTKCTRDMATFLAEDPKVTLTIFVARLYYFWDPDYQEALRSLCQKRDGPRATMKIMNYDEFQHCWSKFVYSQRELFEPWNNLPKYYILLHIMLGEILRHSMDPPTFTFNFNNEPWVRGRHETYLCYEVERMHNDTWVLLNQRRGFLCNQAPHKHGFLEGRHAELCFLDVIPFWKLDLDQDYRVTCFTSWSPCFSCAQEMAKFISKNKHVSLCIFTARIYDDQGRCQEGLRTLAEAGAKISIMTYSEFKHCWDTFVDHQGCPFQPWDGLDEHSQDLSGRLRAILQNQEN
T2 sequence (P31941 whole entry): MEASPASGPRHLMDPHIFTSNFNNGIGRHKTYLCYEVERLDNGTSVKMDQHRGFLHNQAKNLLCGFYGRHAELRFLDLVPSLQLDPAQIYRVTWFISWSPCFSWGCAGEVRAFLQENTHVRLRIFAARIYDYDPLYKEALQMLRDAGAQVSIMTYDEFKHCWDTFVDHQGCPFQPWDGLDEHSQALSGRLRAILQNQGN
Chain of DNA (cytosine-5)-methyltransferase 1 (P26358 whole entry): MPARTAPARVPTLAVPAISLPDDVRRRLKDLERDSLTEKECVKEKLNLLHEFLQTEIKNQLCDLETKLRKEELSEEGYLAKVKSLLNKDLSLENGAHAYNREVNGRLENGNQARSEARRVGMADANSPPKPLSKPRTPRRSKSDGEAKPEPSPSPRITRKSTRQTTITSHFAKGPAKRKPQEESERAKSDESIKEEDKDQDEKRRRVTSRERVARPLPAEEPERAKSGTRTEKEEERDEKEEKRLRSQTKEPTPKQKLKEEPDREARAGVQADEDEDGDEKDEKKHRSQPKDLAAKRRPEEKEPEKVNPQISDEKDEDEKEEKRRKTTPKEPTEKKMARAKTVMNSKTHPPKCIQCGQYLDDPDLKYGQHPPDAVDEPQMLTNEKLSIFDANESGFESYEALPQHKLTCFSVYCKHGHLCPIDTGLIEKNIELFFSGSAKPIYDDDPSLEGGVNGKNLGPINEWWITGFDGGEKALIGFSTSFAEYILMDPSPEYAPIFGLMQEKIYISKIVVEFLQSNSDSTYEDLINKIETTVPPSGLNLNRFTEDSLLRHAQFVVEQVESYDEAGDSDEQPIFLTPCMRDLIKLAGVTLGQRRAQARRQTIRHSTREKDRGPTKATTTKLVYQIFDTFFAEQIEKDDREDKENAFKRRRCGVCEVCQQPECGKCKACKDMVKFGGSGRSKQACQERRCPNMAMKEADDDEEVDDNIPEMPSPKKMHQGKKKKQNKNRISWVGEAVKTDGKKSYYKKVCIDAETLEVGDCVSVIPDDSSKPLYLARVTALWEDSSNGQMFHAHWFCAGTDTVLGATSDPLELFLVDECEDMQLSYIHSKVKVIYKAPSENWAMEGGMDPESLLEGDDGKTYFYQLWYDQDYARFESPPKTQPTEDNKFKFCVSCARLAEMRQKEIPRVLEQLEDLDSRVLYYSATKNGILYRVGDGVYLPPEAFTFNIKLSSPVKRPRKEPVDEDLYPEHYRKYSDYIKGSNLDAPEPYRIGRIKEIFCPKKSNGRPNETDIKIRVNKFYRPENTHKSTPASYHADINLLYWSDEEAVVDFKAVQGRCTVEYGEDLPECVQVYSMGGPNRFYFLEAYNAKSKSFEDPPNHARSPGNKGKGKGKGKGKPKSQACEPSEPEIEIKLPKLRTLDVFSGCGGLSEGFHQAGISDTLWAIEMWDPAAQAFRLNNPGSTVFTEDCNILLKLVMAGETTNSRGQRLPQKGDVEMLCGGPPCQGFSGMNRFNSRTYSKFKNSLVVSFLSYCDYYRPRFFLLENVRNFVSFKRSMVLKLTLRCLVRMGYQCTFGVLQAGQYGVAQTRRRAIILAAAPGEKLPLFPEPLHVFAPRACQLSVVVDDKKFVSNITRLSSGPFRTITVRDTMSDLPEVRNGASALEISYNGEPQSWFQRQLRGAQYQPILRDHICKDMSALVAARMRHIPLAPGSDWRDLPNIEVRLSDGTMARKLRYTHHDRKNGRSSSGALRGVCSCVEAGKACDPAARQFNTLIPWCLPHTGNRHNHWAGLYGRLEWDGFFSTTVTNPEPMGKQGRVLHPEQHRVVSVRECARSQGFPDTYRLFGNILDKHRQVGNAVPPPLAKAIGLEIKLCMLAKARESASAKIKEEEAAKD
Chain of Melanocortin receptor 4 (P32245 whole entry): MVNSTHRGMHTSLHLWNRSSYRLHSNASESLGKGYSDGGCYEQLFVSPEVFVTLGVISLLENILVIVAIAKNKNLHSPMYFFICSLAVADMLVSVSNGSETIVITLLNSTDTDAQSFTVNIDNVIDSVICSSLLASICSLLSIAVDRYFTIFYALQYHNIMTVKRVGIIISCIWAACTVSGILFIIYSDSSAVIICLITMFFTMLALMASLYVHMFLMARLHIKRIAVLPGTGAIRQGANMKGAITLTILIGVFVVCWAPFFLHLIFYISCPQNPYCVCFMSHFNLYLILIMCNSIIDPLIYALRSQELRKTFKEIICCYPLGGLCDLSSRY

CCn1ncc(-c2ccnc3cc(C(=O)O)nn23)c1C
IC50 [1]: > 100 µM (inactive)
IC50 [2]: > 99 µM (inactive)
IC50 [3]: 16.4 µM (inactive) and 24.7 µM (inactive)
IC50 [4]: 3.82 µM (active)
IC50 [5]: 10.7 µM (inactive)
IC50 [6]: 93 µM (inactive) and 69.6 µM (inactive)

O=C1NN(c2ccccc2)C(=O)/C1=C/c1coc2ccccc2c1=O
EC50 [7]: 44.7 µM (active)
IC50 [8]: 1.27 µM (active)
IC50 [9]: 5.3 µM (active)
EC50 [10]: 14.5 µM (active)
EC50 (H4): 13.4 µM (active)

Cc1ccc(NC(=O)c2ccccc2OCC(=O)c2ccc(F)cc2)cc1
EC50 (Melanocortin receptor 4): > 89.2 µM (inactive)

C=CCNc1nc(SC)nc2ccsc12
IC50 [8]: 0.891 µM (active)
IC50 [9]: 1.73 µM (active)

Nn1c(-c2cccc(Br)c2)n[nH]c1=S
EC50 [11]: 108 µM (active)
IC50 [2]: 0.55 µM (active)
IC50 [3]: > 99 µM (inactive)
IC50 [12]: > 100 µM (inactive)
IC50 [5]: > 99 µM (inactive)
IC50 [13]: 1.45 µM (active)
IC50 [6]: 539 nM (active)

CCc1ccc(/C(C)=N/NC(=O)CNC(=O)/C=C/c2ccco2)cc1
IC50 [14]: 106 µM (active)
IC50 [15]: 0.844 µM (active)
IC50 [16]: 6.95 µM (active)

COC(=O)[C@@H]1COC(c2ccccc2C(F)(F)F)=N1
EC50 [17]: > 100 µM (inactive)

COc1ccc(OC)c(NC(=O)CC(C)S(=O)(=O)c2ccc3c(c2)CCN3C(C)=O)c1 (stereo unspecified)
EC50 [17]: > 100 µM (inactive)
